Experimental data: patent publication US20190133930A1, “Methods of Anesthetizing Nerve Tissue in the Trigeminal Nerve Pathway and Medical Uses Thereof” (Apollonia, LLC, priority 2014, published 2019)
Counter-ions that a name gives are not always drawn.

What was measured:
Type in all cases: in vitro ADME
[1] = MatTek EpiAirway cell monolayer permeability of local anesthetics after excipient pre-treatment; details: human, pH 6, EpiAirway, 10 mM test article, donor pH 6.0, 37° C., 0.5 hr
Protocol: The EpiAirway™ cell line is derived from normal human respiratory airway cells and models the mucosal tissue in the nasal cavity's respiratory airway, the main site of drug absorption following intranasal administration.
EpiAirway™ tissues were treated with the excipients (0.5% sodium caprate, 0.5% sodium deoxycholate, 0.5% polyoxyethylene 9 lauryl ether, and 0.5% lysophosphatidylcholine) for 20 min. The excipients were then washed off the EpiAirway™ tissues. […] The receiver wells contained standard transport buffer. The fluorescent marker Lucifer Yellow and atenolol (10 μM) were also included to monitor monolayer integrity at the end of the assay. The plates were incubated at 37° C. for 30 min. An aliquot of the receiver chamber was removed for analysis.
At the end of the incubation period, the donor plate was removed from the receiver plate. The donor and receiver samples were analyzed and quantified by LC-MS/MS (propranolol used as internal LC-MS standard).
To verify the monolayer integrity, aliquots of the cell buffers were analyzed by fluorescence and LC-MS/MS to determine the transport of the impermeable dye Lucifer Yellow and atenolol, respectively.
(§1) Data are expressed as permeability (Papp): Papp=(dQ/dt)/C0A
(§2) Where dQ/dt is the rate of permeation, C0 is the initial concentration of test agent, and A is the area of the monolayer.
For mass spectroscopy method development, the signal was optimized for each compound by electrospray ionization (ESI) in positive ionization mode. An MS2 scan was used to optimize the precursor ion mass, and an SIM scan was used to optimize the fragmenter voltage. Product ion analysis was used to identify the best fragment and collision energy for analysis.
Following MRM method optimization, a test injection was performed and an ionization ranking was assigned indicating the compound's ease of ionization.
(§3) Samples were analyzed by LC/MS/MS using an Agilent 6410 mass spectrometer coupled with an Agilent 1200 HPLC and a CTC PAL chilled autosampler, all controlled by MassHunter software (Agilent). After separation on a C18 reverse phase HPLC column (Agilent Zorbax StableBond 3.5 um, 2.1×30 mm) using an acetonitrile-water gradient, peaks were analyzed by mass spectrometry using ESI ionization in MRM mode. Diclofenac was utilized as an analytical internal standard (IS).

[2] = as above; details: human, pH 6, EpiAirway, 10 mM test article, donor pH 6.0, 37° C., 0.5 hr; excipient: none
[3] = test system: Caco-2 cell monolayer; assay: Caco-2 cell monolayer apical to basolateral permeability of local anesthetic after excipient pre-treatment; details: Caco-2; sodium caprate 0.2-2.0% versus no excipient; dose dependent
Protocol: (§4) A first experiment was performed to test the ability of a mucosal absorption enhancer to promote transport of a local anesthetic agent across a mucosal epithelial cell monolayer. In this experiment, the Caco-2 cell line (an intestinal mucosal cell line) was grown and maintained at a pH of 6.0 for the length of time sufficient to establish tight junctions between the cells in the monolayer. After formation of the monolayer, sodium caprate was administered to the apical side of the Caco-2 cell monolayer at a concentration depending on the given test sample. After 20 minutes, the sodium caprate was washed off of the monolayer. Tetracaine hydrochloride was then administered to the apical side of the Caco-2 cell monolayer at a concentration of 10 mM. An additional test sample including tetracaine but lacking sodium caprate was also administered to the apical side of a separate Caco-2 cell monolayer as a control. The assay duration was 30 minutes. The apical to basolateral permeability rate coefficient of tetracaine across the Caco-2 cell monolayer was determined by LC/MS/MS for each test composition. The permeability rate coefficient (Papp) was based on the percent of the drug that is transported across the epithelial monolayer as a function of time and surface area of the monolayer. Drug permeability across the Caco-2 cell monolayers is a well-known model of transmucosal drug absorption in humans.
(§5) Caco-2 cells grown in tissue culture flasks were trypsinized, suspended in medium, and the suspensions were applied to wells of a Millipore 96 well Caco-2 plate. The cells were allowed to grow and differentiate for three weeks, feeding at 2-day intervals.
(§6) The Caco-2 cells were treated with the excipient (sodium caprate) for 20 minutes at concentrations of 0.2%, 0.5%, 1.0%, and 2.0%. The excipient was then washed off of the Caco-2 cell monolayer. For Apical to Basolateral (A→B) permeability, the test agent (10 mM Tetracaine HCl) was added to the apical (A) side and amount of permeation was determined on the basolateral (B) side. The A-side buffer contained 100 μM Lucifer Yellow (LY) dye and 10 μM Atenolol, in Transport Buffer (1.98 g/L glucose in 10 mM HEPES, 1× Hank's Balanced Salt Solution without Mg2+ and Ca2+) pH 6.0 for test articles. The B-side buffer was standard Transport Buffer, pH 7.4. Caco-2 cells were incubated with these buffers for 0.5 hr, and the receiver side buffer was removed for analysis by LC/MS/MS (propranolol used as internal LC/MS standard).
(§7) To verify that the Caco-2 cell monolayers were properly formed (and remained intact during the assay), aliquots of the cell buffers were analyzed by fluorescence and LC/MS/MS to determine the transport of the impermeable dye Lucifer Yellow and atenolol, respectively. Any deviations from control values are reported.
as §1, §2
(§8) For analytical method development, the analyte signal was optimized for each compound by ESI positive or negative ionization mode. An MS2 scan or an SIM scan was used to optimize the fragmenter voltage and a product ion analysis was used to identify the best fragment for analysis, and the collision energy was optimized using a product ion or MRM scan. An ionization ranking was assigned indicating the compound's ease of ionization.
as §3, with “μm,” for “um,”, “gradient system,” for “gradient,”, “spectrometry (MS)” for “spectrometry”, “mode.” for “mode. Diclofenac was utilized as an analytical internal standard (IS).”

[4] = as above; details: human, Caco-2, pH 6, Caco-2, A→B, 10 mM Tetracaine HCl, apical pH 6.0, 0.5 hr
Protocol: as §4, §5, §6, §7, §1, §2, §8
as §3, with “μm,” for “um,”, “gradient system,” for “gradient,”, “spectrometry (MS)” for “spectrometry”, “mode.” for “mode. Diclofenac was utilized as an analytical internal standard (IS).”

[5] = 20 min pre-treatment with 0.5% Lysophosphatidylcholine
[6] = 20 min pre-treatment with 0.5% Polyoxyethylene 9 Lauryl Ether
[7] = 20 min pre-treatment with 0.5% Sodium Caprate
[8] = 20 min pre-treatment with 0.5% Sodium Deoxycholate

| Papp A→B at 30 min, 10 mM [1, 5] | Papp A→B at 30 min, 10 mM [1, 6] | Papp A→B at 30 min, 10 mM [1, 7] | Papp A→B at 30 min, 10 mM [1, 8] | Papp A→B at 30 min, 10 mM [2] | effect of sodium caprate on permeability across a mucosal epithelial cell monolayer [3] | Papp A→B at 0.5 hr, 10 mM ([4]; 20 min pre-treatment with 0.2% Sodium Caprate) | Papp A→B at 0.5 hr, 10 mM [4, 7] | Papp A→B at 0.5 hr, 10 mM ([4]; 20 min pre-treatment with 1.0% Sodium Caprate) | Papp A→B at 0.5 hr, 10 mM ([4]; 20 min pre-treatment with 2.0% Sodium Caprate) | Papp A→B at 0.5 hr, 10 mM ([4]; excipient: None) | Compound |
| --- | --- | --- | --- | --- | --- | --- | --- | --- | --- | --- | --- |
| 173 ×10⁻⁶ cm/s | 189 ×10⁻⁶ cm/s | 116 ×10⁻⁶ cm/s | 218 ×10⁻⁶ cm/s | 19.2 ×10⁻⁶ cm/s | – | – | – | – | – | – | CCCCN1CCCCC1C(=O)Nc1c(C)cccc1C (stereo not shown) [Bupivacaine, Bupivacaine HCl] |
| 71.6 ×10⁻⁶ cm/s | 126 ×10⁻⁶ cm/s | 56.8 ×10⁻⁶ cm/s | 155 ×10⁻⁶ cm/s | 10.8 ×10⁻⁶ cm/s | significantly improved the permeability | 32.2 ×10⁻⁶ cm/s | 55.9 ×10⁻⁶ cm/s | 54.8 ×10⁻⁶ cm/s | 139 ×10⁻⁶ cm/s | 17.7 ×10⁻⁶ cm/s | CCCCNc1ccc(C(=O)OCCN(C)C)cc1 [Tetracaine, Tetracaine HCl] |
